Experimental findings from patent US20240228499A1, “MASP-2 INHIBITORS AND METHODS OF USE” (Omeros Corporation, priority 2022, published 2024) are described below.

In one assay the target is T1, MASP-2 (CCP1-CCP2-SP) (Homo sapiens, UniProt O00187).
T1 construct: 15 μL of Enzyme MASP-2 (CCP1-CCP2-SP) in Assay Buffer
The experiment in a line: Enzymatic assay for MASP-2 inhibitory activity (fluorogenic substrate). The class given is biochemical. The following applies: room temperature, 20 mM Hepes pH 7.4, 20 min. The protocol: The MASP-2 assay utilizes a fluorogenic substrate, based on the cleavage site for its natural substrate C2. The assay was run at room temperature in an assay buffer containing 20 mM HEPES, pH 7.4, 140 mM NaCl and 0.1% Tween 20. Assay parameters were adjusted such that the assay was linear with respect to time, enzyme, and substrate concentrations. Under the optimized assays conditions, IC50 values were equivalent to Ki values, except in the few cases of “tight binding” inhibitors. Cases of “tight binding” or possible “slow binding” inhibitors were handled by the methods described in Copeland R. A. (2013) Evaluation of Enzyme Inhibitors in Drug Discovery. 2nd Ed., John Wiley and Sons, Inc., Chapters 5-7.
The MASP-2 assay protocol was carried out as follows. Test compounds were serially diluted in DMSO and then 100 nL of each dilution was transferred to the assay plate(s). 10 μL of Assay Buffer was added, followed by 15 μL of Enzyme MASP-2 (CCP1-CCP2-SP) in Assay Buffer. 15 μL of Substrate in Assay Buffer was then added and the mixture was mixed to start the reaction. After 20 min at room temperature, 15 μL of a stop solution (0.1 M acetic acid) was added, the sample was mixed, and the plates were read on a SpectraMax i3× Microplate Reader with the data exported as an Excel file. Each assay plate included a “no inhibitor” (DMSO only) control, a “no enzyme” control, and a reference inhibitor control. % Activity values=100*(average test comp. fluorescence−average “no enzyme” fluorescence)/(average “DMSO only” fluorescence−average “no enzyme” fluorescence). IC50 and Ki replicate values were very reproducible, with values well within +2-fold.

For a further assay, the target named is T2, human a-thrombin (Homo sapiens, UniProt P00734).
T2 construct: enzyme (human a-thrombin (BioPharm® Lab.)); purchased BioPharm Lab
Briefly: Enzymatic assay for thrombin (fluorogenic peptide substrate Boc-VPR-AMC). To be noted: room temperature, 20 mM Hepes pH 7.4, 20 min. Format: biochemical. The protocol: The thrombin assay utilizes a fluorogenic peptide substrate (Boc-VPR-AMC (R&D Systems) and was run at room temperature in an assay buffer containing 20 mM Hepes, pH 7.4, 140 mM NaCl and 0.1% Tween 20. Assay parameters were adjusted such that the assay was linear with respect to time, enzyme, and substrate concentrations. Under these optimized assays conditions, IC50 values were equivalent to Ki values, except in a few cases of “tight binding” inhibitors. Cases of “tight binding” or possible “slow binding” inhibitors were handled by the methods described in Copeland R.A. (2013) Evaluation of Enzyme Inhibitors in Drug Discovery. 2nd Ed. John Wiley and Sons, Inc., Chapters 5-7.
The thrombin assay protocol was carried out as follows. Test compounds were serially diluted in DMSO and then 100 nL of each dilution was transferred to the assay plate(s). 10 μL of Assay Buffer was added, followed by 15 μL of enzyme (human a-thrombin (BioPharm® Lab.)) in assay buffer. 15 μL of substrate in assay buffer was then added and the sample mixed to start the reaction. After 20 min at room temperature, 15 μL of a stop solution (0.1 M acetic acid) was added, the sample was mixed, and the plates were read on a SpectraMax® i3× Microplate Reader with the data exported as Excel files. Each assay plate included a “no inhibitor” (DMSO only) control, a “no enzyme” control, and a reference inhibitor control. % Activity values=100*(ave. test comp. fluorescence−ave. “no enz” fluorescence)/(ave. “DMSO only” fluorescence−ave. “no enz” fluorescence). IC50 and Ki values were very reproducible, with values falling well within +2-fold.

SMILES strings stand for the structures. Counter-ions that a name gives are not always drawn.

T1 sequence (O00187 287-686 limits assumed): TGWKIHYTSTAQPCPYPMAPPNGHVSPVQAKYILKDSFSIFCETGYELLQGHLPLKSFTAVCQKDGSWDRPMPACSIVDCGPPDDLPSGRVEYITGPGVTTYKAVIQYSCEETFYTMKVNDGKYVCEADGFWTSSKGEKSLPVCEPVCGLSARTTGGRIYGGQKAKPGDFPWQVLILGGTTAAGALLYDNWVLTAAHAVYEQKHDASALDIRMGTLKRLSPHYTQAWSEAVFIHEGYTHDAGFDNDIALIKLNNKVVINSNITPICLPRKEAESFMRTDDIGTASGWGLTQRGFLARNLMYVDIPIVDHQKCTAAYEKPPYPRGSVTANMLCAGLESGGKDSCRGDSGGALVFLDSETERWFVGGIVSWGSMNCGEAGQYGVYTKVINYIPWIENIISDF

What is called Ki is the equilibrium dissociation constant of an inhibitor or competing ligand from its target. As to `Cc1nc(N)ccc1CNC(=O)[C@@H]1CCc2ncc(NCc3cc(C(F)(F)F)ccc3F)c(=O)n21` [Compound 38, (S)-N-((6-amino-2-methylpyridin-3-yl)methyl)-3-((2-fluoro-5-(trifluoromethyl)benzyl)amino)-4-oxo-4,6,7,8-tetrahydro-pyrrolo[1,2-a]pyrimidine-6-carboxamide, di-trifluoroacetate], the values for the Ki on MASP-2 (CCP1-CCP2-SP) and on human a-thrombin were under 500 nM and 2500 to 10000 nM, respectively.

Regarding `Cc1cccc(C(C)Nc2cnc3n(c2=O)[C@H](C(=O)NCc2cc4c(s2)CNC4)CC3)c1` (single isomer, unassigned) [Compound 70, di-trifluoroacetate], the values for the inhibitory constant (Ki) on MASP-2 (CCP1-CCP2-SP) and at human a-thrombin were under 500 nM and 10000 to 25000 nM, respectively.

Consider `Cc1nc(N)ccc1CNC(=O)[C@@H]1CCc2ncc(NCc3cc(F)cc(Cl)c3)c(=O)n21` [Compound 56, (S)—N-((6-amino-2-methylpyridin-3-yl)methyl)-3-((3-chloro-5-fluorobenzyl)amino)-4-oxo-4,6,7,8-tetrahydropyrrolo[1,2-a]pyrimidine-6-carboxamide], for which the results for the Ki at MASP-2 (CCP1-CCP2-SP) and at human a-thrombin were under 500 nM and 500 to 2500 nM, respectively.

Turning to `COc1cc(C)cc(CNc2cnc3n(c2=O)[C@H](C(=O)NCc2ccc(N)nc2C)CC3)c1` [Compound 2, (S)—N-((6-amino-2-methylpyridin-3-yl)methyl)-3-((3-methoxy-5-methylbenzyl)amino)-4-oxo-4,6,7,8-tetrahydropyrrolo[1,2-a]pyrimidine-6-carboxamide], the Ki at MASP-2 (CCP1-CCP2-SP) and at human a-thrombin was under 500 nM throughout.

As for `Nc1ccc2c(n1)CC[C@H]2NC(=O)[C@@H]1CCc2ncc(NCc3cccc(F)c3)c(=O)n21` [Compound 101], the Ki is under 500 nM on MASP-2 (CCP1-CCP2-SP) and 500 to 2500 nM at human a-thrombin.

As for `Cc1cc(CNc2cnc3n(c2=O)[C@H](C(=O)N[C@H](C)c2ccc(N)nc2)CC3)cc(C(F)(F)F)c1` [Compound 51, (S)—N—((R)-1-(6-aminopyridin-3-yl)ethyl)-3-((3-methyl-5-(trifluoromethyl)benzyl)amino)-4-oxo-4,6,7,8-tetrahydropyrrolo[1,2-a]pyrimidine-6-carboxamide. DI-trifluoroacetate], the results for the Ki on MASP-2 (CCP1-CCP2-SP) and at human a-thrombin were under 500 nM and over 25000 nM, respectively.

Turning to `Cc1nc(N)ccc1CNC(=O)[C@@H]1CCc2ncc(NCc3cccc4c3OCCO4)c(=O)n21` [Compound 14, (S)-N-((6-amino-2-methylpyridin-3-yl)methyl)-3-(((2,3-dihydrobenzo[b][1,4]dioxin-5-yl)methyl)amino)-4-oxo-4,6,7,8-tetrahydropyrrolo[1,2-a]pyrimidine-6-carboxamide], the inhibitory constant (Ki) on MASP-2 (CCP1-CCP2-SP) was under 500 nM; on human a-thrombin it was 2500 to 10000 nM.

Turning to `Cc1cc(Cl)cc(CNc2cnc3n(c2=O)[C@H](C(=O)NCc2ccc(N)nc2C)CC3)c1` [Compound 55, (S)-N-((6-amino-2-methylpyridin-3-yl)methyl)-3-((3-chloro-5-methylbenzyl)amino)-4-oxo-4,6,7,8-tetrahydropyrrolo[1,2-a]pyrimidine-6-carboxamide], the Ki on MASP-2 (CCP1-CCP2-SP) and on human a-thrombin was under 500 nM in each case.

For the compound `N#Cc1cc(Cl)cc(CNc2cnc3n(c2=O)[C@H](C(=O)N[C@@H]2CCc4nc(N)ccc42)CC3)c1` [Compound 89, (S)-N-((R)-2-amino-6,7-dihydro-5H-cyclopenta[b]pyridin-5-yl)-3-((3-chloro-5-cyanobenzyl)amino)-4-oxo-4,6,7,8-tetrahydro-pyrrolo[1,2-a]pyrimidine-6-carboxamide], the Ki on MASP-2 (CCP1-CCP2-SP) and at human a-thrombin was under 500 nM in each case.

On to `Cc1cc(C)cc(CNc2cnc3n(c2=O)[C@H](C(=O)N[C@H](C)c2ccc(N)nc2)CC3)c1` [Compound 16], for which the values for the Ki on MASP-2 (CCP1-CCP2-SP) and on human a-thrombin were under 500 nM and over 25000 nM, respectively.

As to `Cc1nc(N)ccc1CNC(=O)[C@@H]1CCc2ncc(NCc3cccc(N4CCOCC4)c3)c(=O)n21` [Compound 11, (S)-N-((6-amino-2-methylpyridin-3-yl)methyl)-3-((3-morpholinobenzyl)amino)-4-oxo-4,6,7,8-tetrahydropyrrolo[1,2-a]pyrimidine-6-carboxamide, hydrochloride], the Ki on MASP-2 (CCP1-CCP2-SP) was under 500 nM; at human a-thrombin, 500 to 2500 nM.

For `Cc1ccc(F)cc1CNc1cnc2n(c1=O)[C@H](C(=O)NCc1ccc(N)nc1C)CC2` [Compound 31, (S)-N-((6-amino-2-methylpyridin-3-yl)methyl)-3-((5-fluoro-2-methylbenzyl)amino)-4-oxo-4,6,7,8-tetrahydropyrrolo[1,2-a]pyrimidine-6-carboxamide, di-trifluoroacetate], the Ki on MASP-2 (CCP1-CCP2-SP) is under 500 nM; on human a-thrombin, 500 to 2500 nM.

As for `N#CCc1cccc(CNc2cnc3n(c2=O)[C@H](C(=O)N[C@@H]2CCc4nc(N)ccc42)CC3)c1` [Compound 91, (S)-N-((R)-2-amino-6,7-dihydro-5H-cyclopenta[b]pyridin-5-yl)-3-((3-(cyanomethyl)benzyl)amino)-4-oxo-4,6,7,8-tetrahydro-pyrrolo[1,2-a]pyrimidine-6-carboxamide], the Ki at MASP-2 (CCP1-CCP2-SP) is under 500 nM; on human a-thrombin it was 500 to 2500 nM.

In the case of `Cc1nc(N)ccc1CNC(=O)[C@@H]1CCc2ncc(NCc3ccc(F)cc3)c(=O)n21` [Compound 52, (S)—N-((6-amino-2-methylpyridin-3-yl)methyl)-3-((4-fluorobenzyl)amino)-4-oxo-4,6,7,8-tetrahydropyrrolo[1,2-a]pyrimidine-6-carboxamide], the inhibition constant (Ki) on MASP-2 (CCP1-CCP2-SP) was under 500 nM; at human a-thrombin it was 2500 to 10000 nM.

Turning to `Cc1nc(N)ccc1CNC(=O)[C@@H]1CCc2ncc(NCc3cnn(-c4ccccc4)c3)c(=O)n21` [Compound 24, (S)—N-((6-amino-2-methylpyridin-3-yl)methyl)-4-oxo-3-(((1-phenyl-1H-pyrazol-4-yl)methyl)amino)-4,6,7,8-tetrahydropyrrolo[1,2-a]pyrimidine-6-carboxamide, trifluoroacetate], the inhibition constant (Ki) on MASP-2 (CCP1-CCP2-SP) was under 500 nM; at human a-thrombin it was 10000 to 25000 nM.

As for `Cc1cccc(CNc2cnc3n(c2=O)[C@H](C(=O)NCc2ccc(N)nc2C)CC3)c1F` [Compound 33, (S)-N-((6-amino-2-methylpyridin-3-yl)methyl)-3-((2-fluoro-3-methylbenzyl)amino)-4-oxo-4,6,7,8-tetrahydropyrrolo[1,2-a]pyrimidine-6-carboxamide, di-trifluoroacetate], the Ki on MASP-2 (CCP1-CCP2-SP) was under 500 nM; at human a-thrombin, 500 to 2500 nM.

Take `Cc1cc(C)cc(CNc2cnc3n(c2=O)[C@H](C(=O)N[C@@H](C)c2cc4c(s2)CNC4)CC3)c1` [Compound 107]: the Ki was under 500 nM on MASP-2 (CCP1-CCP2-SP) and over 25000 nM at human a-thrombin.

For the compound `CCc1cccc(CNc2cnc3n(c2=O)[C@H](C(=O)NCc2ccc(N)nc2C)CC3)c1` [Compound 26], the figures for the Ki on MASP-2 (CCP1-CCP2-SP) and at human a-thrombin were under 500 nM and 500 to 2500 nM, respectively.

In the case of `Cc1nc(N)ccc1CNC(=O)[C@@H]1CCc2ncc(NCc3ccccc3C(F)F)c(=O)n21` [Compound 27, (S)—N-((6-amino-2-methylpyridin-3-yl)methyl)-3-((2-(difluoromethyl)benzyl)amino)-4-oxo-4,6,7,8-tetrahydropyrrolo[1,2-a]pyrimidine-6-carboxamide, di-trifluoroacetate], the Ki was under 500 nM on MASP-2 (CCP1-CCP2-SP) and 500 to 2500 nM on human a-thrombin.

Turning to `Cc1cc(C)cc(CNc2cnc3n(c2=O)[C@H](C(=O)NCc2cccnc2C)CC3)c1` [Compound 23, (S)-3-((3,5-dimethylbenzyl)amino)-N-((2-methylpyridin-3-yl)methyl)-4-oxo-4,6,7,8-tetrahydropyrrolo[1,2-a]pyrimidine-6-carboxamide, trifluoroacetate], the Ki on MASP-2 (CCP1-CCP2-SP) is 2500 to 10000 nM; on human a-thrombin, over 25000 nM.

Turning to `Cc1cc(F)cc(CNc2cnc3n(c2=O)[C@H](C(=O)NCc2ccc(N)nc2C)CC3)c1` [Compound 34, (S)-N-((6-amino-2-methylpyridin-3-yl)methyl)-3-((3-fluoro-5-methylbenzyl)amino)-4-oxo-4,6,7,8-tetrahydropyrrolo[1,2-a]pyrimidine-6-carboxamide, di-trifluoroacetate], the Ki on MASP-2 (CCP1-CCP2-SP) and at human a-thrombin was under 500 nM throughout.
